Literature values as cited in patent US12090147B2, “Combination therapy with 2-(4-chlorophenyl)-N-((2-(2,6-dioxopiperidin-3-yl)-1-oxoisoindolin-5-yl)methyl)-2,2-difluoroacetamide” (Celgene Corporation, priority 2019, dated 2024).

System: acute myeloid leukemia (AML) at relapse
Settings: administered alone; cited from earlier work

In the case of “CT-011: anti-PD-1 antibody, a humanized antibody”, the “Response in treating AML at relapse” value is listed as “failed to show response”.
